Measurements published in PubChem BioAssay (NCI).
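Protocol summary: plate cells (96-well), add compound at 5 concentrations, incubate 48 h, interpolate endpoints linearly. The concentration for full growth arrest is given as TGI.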

Experiments:
Assay in all cases: growth of human tumour cells (NCI), 48 h
A549 NSCLC = tested on: A549 NSCLC
KM12 colon = tested on: KM12 colon
OVCAR-3 ovarian = tested on: OVCAR-3 ovarian
TK-10 renal = tested on: TK-10 renal
SK-OV-3 ovarian = tested on: SK-OV-3 ovarian
K-562 leukemia = tested on: K-562 leukemia
LOX IMVI melanoma = tested on: LOX IMVI melanoma
OVCAR-8 ovarian = tested on: OVCAR-8 ovarian
SF-295 CNS = tested on: SF-295 CNS
SN12C renal = tested on: SN12C renal

SMILES	TGI (A549 NSCLC) [µM]	TGI (KM12 colon) [µM]	TGI (OVCAR-3 ovarian) [µM]	TGI (TK-10 renal) [µM]	TGI (SK-OV-3 ovarian) [µM]	TGI (K-562 leukemia) [µM]	TGI (LOX IMVI melanoma) [µM]	TGI (OVCAR-8 ovarian) [µM]	TGI (SF-295 CNS) [µM]	TGI (SN12C renal) [µM]
COc1cc2c(cc1OC)[C@]1(O)C(=O)c3ccc4c(c3O[C@@H]1CO2)C[C@H](C(C)(C)O)O4	> 100	> 100	> 100	> 100	> 100	> 100	> 100	> 100	–	–
CSc1ccc2c(cc1=O)C(NC(=O)c1cc(O)c(OC(=O)O)c(O)c1)CCc1cc(O)c(O)c(O)c1-2 (stereo unspecified)	52	65.3	40	> 90	> 90	42.3	24.8	> 90	36.5	26.7
CN1C(=O)c2cccc3c([N+](=O)[O-])ccc(c23)C1=O	26.8	18.3	11.4	15.6	27.9	25	18.9	18.9	28.1	24.9
C/C(=N\O)C(CN(C)C)C(c1ccccc1)c1c(O)c2ccccc2oc1=O (stereo unspecified)	> 100	> 100	–	> 100	> 100	> 100	> 100	> 100	> 100	> 100
O=C(Cc1ccccc1)NN1C(=O)C(Cl)C1c1cc(Br)cc(Br)c1O (stereo unspecified)	76.1	> 100	10.7	> 100	62.6	34.1	40	> 100	98.7	> 100
COC(=O)C(=O)C(C(=O)C(=O)Nc1ccc([N+](=O)[O-])cc1C#N)c1nc2ccc([N+](=O)[O-])cc2[nH]c1=O (stereo unspecified)	> 100	> 100	> 100	> 100	> 100	> 100	> 100	> 100	> 100	> 100
CCCN(CCC)C(=O)Cc1c2n(c3ccccc13)CCCc1ccccc1-2	28.2	25.2	29.5	29.5	29	37.4	29.1	29.9	22.4	29.2
O=c1[nH]nc2c3n[nH]c(=O)n3c3ccccc3n12	> 100	> 100	> 100	> 100	> 100	> 100	> 100	> 100	> 100	> 100
CCC(=O)NCC1(c2c[nH]c3ccccc23)SCCS1	> 100	> 100	> 100	> 100	> 100	> 100	> 100	> 100	> 100	> 100
O=C1c2ccccc2C(=O)N1C/C=N/NS(=O)(=O)c1ccc(Cl)cc1	> 100	–	–	> 100	–	> 100	> 100	> 100	> 100	> 100
CCOC(=O)NC(=O)c1cn(-c2ccc(CCOC(=O)CCCCCCCCC(=O)OCCc3ccc(-n4cc(C(=O)NC(=O)OCC)c(=O)[nH]c4=O)cc3)cc2)c(=O)[nH]c1=O	> 100	> 100	> 100	> 100	> 100	> 100	> 100	> 100	> 100	> 100
CCN(CC)CCNC(=O)c1ccccc1Nc1c(Cl)cccc1Cl	32.6	–	–	24.8	30.4	–	24.3	31.5	–	27.1
CN(C)CC1CCC(CN(C)C)C1=NO (stereo unspecified)	> 100	–	> 100	> 100	–	> 100	> 100	> 100	> 10	> 100
CN1C(=O)NC2(O)c3ccccc3C(=O)C12O (stereo unspecified)	> 100	> 100	> 100	> 100	> 100	> 100	> 100	> 100	> 100	–
CC(=O)C1CC2(c3ccccc3)C(=O)c3ccccc3N2O1 (stereo unspecified)	> 100	–	–	–	> 100	> 100	–	> 100	> 100	> 100
COc1ccccc1OCc1nnc(SCC(=O)O)n1-c1ccccc1	> 100	> 100	> 100	> 100	> 100	–	> 100	> 100	> 100	> 100
C/C(CC(=O)Nc1ccc(C)cc1)=N\NC(N)=S	> 100	> 100	> 100	> 100	> 100	> 100	> 100	> 100	> 100	–
